Source: patent US9512425B2, “Inhibiting migration of cancer cells” (Cornell University, priority 2012, dated 2016)

What was measured:
MDA cells = test: Wound healing / transwell migration with BAPTA-AM, MDA cells; type: cell-based, human; conditions: 20 μM BAPTA-AM
Procedure: (§1) Cells were plated in triplicate into 6-well plates (5×10^5 cell/well) and cultured in DMEM containing 10% FBS. A scratch wounded was generated using sterile plastic 200 μl pipette tip, and floating debris removed by washing with PBS. Cell migration was photographed and measured under phase-contrast microscopy. To measure cell migration after depletion of intracellular calcium, a scratch was made and the wound healing was monitored for 48 hr in the presence of 20 μM of BAPTA-AM (Invitrogen). The percentage of wound healed area was measured as a ratio of occupied area to the total area using Image J program (NIH).

MDA-MB-436 cells = test: Wound healing migration with BAPTA-AM, MDA-MB-436 cells; type: cell-based, human; conditions: MDA-MB-436 cells expressing miR-708, BAPTA-AM 20 μM, 48 hours
Procedure: as §1

What does the source list for `CC(=O)OCOC(=O)CN(CC(=O)OCOC(C)=O)c1ccccc1OCCOc1ccccc1N(CC(=O)OCOC(C)=O)CC(=O)OCOC(C)=O` [BAPTA-AM]?
cell migration (MDA cells; MDA control cells): dramatic impairment; cell migration (MDA cells; MDA-miR708 cells): remained less affected; cell migration (MDA-MB-436 cells): rescued the migration defects
